Measured values from US11407729B2, “Quinoline and quinazoline compounds and methods of use thereof” (Stingray Therapeutics, Inc., priority 2019, dated 2022).

Assays:
ENPP1 protein [1] = molecular target: T1, ENPP1 protein (Homo sapiens, UniProt P22413); experiment: Thermal Shift Binding Assay; details: 1 μg of ENPP1 protein incubated with 100 μM of drug for 5 minutes; for ΔTm at 100 µM: read-out: Thermal Shift (Δ TmD)
T1 sequence (P22413 1-925): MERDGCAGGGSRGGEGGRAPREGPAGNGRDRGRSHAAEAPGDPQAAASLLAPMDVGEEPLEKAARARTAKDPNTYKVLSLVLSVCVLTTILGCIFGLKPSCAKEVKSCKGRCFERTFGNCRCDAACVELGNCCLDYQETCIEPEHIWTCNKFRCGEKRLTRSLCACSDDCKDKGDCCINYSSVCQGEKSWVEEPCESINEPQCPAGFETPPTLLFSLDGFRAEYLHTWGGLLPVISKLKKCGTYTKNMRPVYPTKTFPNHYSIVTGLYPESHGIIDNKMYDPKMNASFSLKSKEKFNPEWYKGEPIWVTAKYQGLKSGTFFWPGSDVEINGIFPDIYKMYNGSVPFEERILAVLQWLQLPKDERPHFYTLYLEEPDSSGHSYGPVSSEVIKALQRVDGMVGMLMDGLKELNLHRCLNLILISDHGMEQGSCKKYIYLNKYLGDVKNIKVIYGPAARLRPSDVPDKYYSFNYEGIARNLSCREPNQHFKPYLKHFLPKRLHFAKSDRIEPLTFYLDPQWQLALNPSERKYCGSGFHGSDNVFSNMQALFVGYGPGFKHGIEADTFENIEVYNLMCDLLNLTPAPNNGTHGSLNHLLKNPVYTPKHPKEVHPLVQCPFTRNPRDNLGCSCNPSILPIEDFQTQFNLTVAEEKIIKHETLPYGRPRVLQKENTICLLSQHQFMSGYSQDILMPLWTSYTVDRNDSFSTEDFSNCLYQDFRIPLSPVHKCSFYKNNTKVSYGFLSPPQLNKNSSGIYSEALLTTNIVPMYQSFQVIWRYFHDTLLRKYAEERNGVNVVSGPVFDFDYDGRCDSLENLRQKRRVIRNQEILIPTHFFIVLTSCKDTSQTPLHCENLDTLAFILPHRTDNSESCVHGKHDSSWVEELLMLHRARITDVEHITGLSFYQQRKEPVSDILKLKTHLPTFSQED
Protocol: Thermal Shift Binding Assay.
The Thermal Shift Assays were implemented to study thermal stabilization of ENPP1 proteins upon ENPP1 inhibitor or ligand binding. These assays were used extensively on purified ENPP1 protein. In a 384-well plate, 1 μg of ENPP1 protein was incubated with 100 μM of the corresponding drug for 5 minutes. Each well was exposed to increasing temperatures to determine an unfolding temperature of the protein. […] 2′3′ cGAMP was used as a positive control, as it is a substrate of ENPP1.

ENPP1 protein [2] = molecular target: T1, ENPP1 protein; experiment: ENPP1 Inhibition Assay; assay type: biochemical; parameters: purchased R&D 6136-EN-010; details: substrate Thymidine 5′-monophosphate p-nitrophenol ester; 37° C. for 45 minutes; absorbance at 405 nm
Protocol: 1. ENPP1 Inhibition Assay
An eight point serial dilution of drugs was prepared in 10× in assay buffer with the final assay concentrations starting at 10 μM, 3 μM, 1 μM, 0.3 μM . . . 0 μM. A dilution of DMSO was included as a control. The assay plate was set up as follows with each well in duplicate: 81 μL assay buffer+10 μL ENPP1 inhibitor or DMSO+5 μL Substrate+4 μL Enzyme. Both the enzyme and substrate were added to opposite sides of the well to ensure that there was no interaction until all wells had both components. The plate was then centrifuged gently for 10 seconds, followed by an incubation at 37° C. for 45 minutes.
IC50 values are determined using GraphPad Prism 5 software. The data were entered as an X-Y plot into the software as percent inhibition for each concentration of the drug. The concentration values of the drug were log transformed and the nonlinear regression was carried out using the “sigmoidal dose-response (variable slope)” option within the GraphPad software to model the data and calculate IC50 values.

| Compound | Thermal Shift (Δ TmD) (ENPP1 protein [1]) | IC50 (ENPP1 protein [2]) [nM] | ΔTm at 100 µM (ENPP1 protein [1]) [°C] |
| --- | --- | --- | --- |
| N-(2-(1-(6,7-dimethoxyquinazolin-4-yl)piperidin-4-yl)propyl)sulfonamide urea [Compound I-01] | 5.5 | 2.79 | – |
| N-(2-(1-(6,7-dimethoxyquinolin-4-yl)piperidin-4-yl)propyl)sulfamoylcarbamate [Compound I-02] | 5.0 | 5.95 | – |
| CCC(CNS(N)(=O)=O)C1CCN(c2ccnc3cc(OC)c(OC)cc23)CC1 (stereo not shown) [Compound I-13, N-(2-(1-(6,7-dimethoxyquinolin-4-yl)piperidin-4-yl)butyl)sulfuricdiamide] | – | 4.55 | 4 |
| COc1cc2nccc(N3CCC(C(C)CNS(N)(=O)=O)CC3)c2cc1N1CCOCC1 (stereo not shown) [Compound I-12] | – | 835 | 3.6 |
| COc1ccc(OC)c(S(=O)(=O)Nc2cnc3ccccc3c2)c1 [Compound I-06, 2,5-dimethoxy-N-(quinolin-3-yl)benzenesulfonamide] | – | 5150 | 1.6 |
